The text below walks through data of US10064861B2, “Macrocyclic pyridazinone derivatives” (Merck Patent GmbH, priority 2013, dated 2018).

The conditions of data set [1]: amide bond, DMF, 25.0 °C.
The next data set addresses IRAK1 (Homo sapiens (Human), UniProt P51617). Put plainly: IRAK1 enzymatic assay. The data set is classed as biochemical. To be noted: His-TEV-IRAK-1, ATP 1 μM, 3 hours at 30° C. As to the method:
IRAK1 is a human purified recombinant enzyme (His-TEV-IRAK1 (194-712)) In this assay, IRAK-1 hydrolyses ATP and autophosphorylates.
Measurement of IRAK-1 inhibition is performed in streptavidin coated 384 well FlashPlate (PerkinElmer #SMP410A).
His-TEV-IRAK-1 (15 ng/well), ATP (1 μM, [^33P]ATP 0.25 μCi/well) and compounds in DMSO (range of concentrations from 20 μM to 1 nM) or controls (2% DMSO) are incubated for 3 hours at 30° C. in assay buffer: Hepes pH 7.0 50 mM, Fatty acid-free BSA 0.1%, Dithiothreitol DTT 2 mM, MgCl2 10 mM, EGTA 0.5 mM, Triton-X-100 0.01%. Kinase reaction is stopped by addition of EDTA. Supernatant is discarded, plates are washed three times with 150 mM NaCl and radioactivity is then measured in a Microbeta Trilux reader.

Data set [2] deals with TLR7 induced IL-6 secretion in human mononuclear cells (PBMC's). As to the kind of experiment: TLR7 induced IL-6 in human PBMC's. The data set is classed as cell-based. To be noted: TLR7 specific ligand 2 uM overnight, IL-6 AlphaLISA. Here is the method: TLR7 Induced IL-6 in Human PBMC's
Human PBMC assay is used as one of the functional assay to monitor the activity of IRAK1 and IRAK4 small molecule inhibitors on TLR7 induced IL-6 secretion in human mononuclear cells (PBMC's). Human PBMCs are prepared from buffy coats (whole blood enriched with leukocytes and platelets) obtained from healthy volunteers used either fresh or frozen are plated in assay media (RPMI+2% P/S/L-glu+10% HI-FBS) and pre-treated with compounds in DMSO/media (range of concentrations from 25 μM to 0.4 nM) or controls (0.25% DMSO) for 30 minutes at 37° C. in assay media. Following pre-treatment with IRAK1 and IRAK4 inhibitors, PBMC's are stimulated with TLR7 specific ligand (2 uM) overnight (16-18 hrs) at 37° C. After incubation supernatant is transferred to 384 well PE AlphaPlate-384 (6005350) and IL-6 is quantified using Perkin Elmer IL-6 Alpha LISA kit (AL223C). Plates are read on an Envision® plate reader with Alpha Technology®.

The target in another data set is IRAK4 (Homo sapiens (Human), UniProt Q9NWZ3). As to the kind of experiment: IRAK4 enzymatic assay. It is filed as biochemical. The note with it: His-TEV-IRAK4, ATP 2 μM, STK1-biotin peptide 300 nM, 3 hours at 30° C. As to the method: IRAK4 is a human purified recombinant enzyme (His-TEV-IRAK1 (194-712) IRAK4 hydrolyses ATP, autophosphorylates and phosphorylates a Serine/Threonine generic peptidic substrate (STK: 61ST1BLC from CisBio International based in Bagnols/Cèze FR).
Measurement of IRAK-4 inhibition is performed in streptavidin coated 384 well FlashPlate (PerkinElmer #SMP410A). His-TEV-IRAK4 (20 ng/well), ATP (2 μM, [^33P]ATP 0.25 μCi/well), STK1-biotin peptide (300 nM) and compounds in DMSO (range of concentrations from 20 μM to 1 nM) or controls (2% DMSO) are incubated for 3 hours at 30° C. in assay buffer: Hepes pH 7.0 50 mM, Fatty acid-free BSA 0.1%, Dithiothreitol DTT 2 mM, MgCl2 10 mM, EGTA 0.5 mM, Tween-20 0.01%, MnCl2 5 mM.
Kinase reaction is stopped by addition of EDTA. Supernatant is discarded, plates are washed three times with 150 mM NaCl and radioactivity is then measured in a Microbeta Trilux reader.

For data set [3] the following is noted: amide bond, DMF, 25.0 °C. This is another data set of the same source.

Molecules are shown by their SMILES. Like-named read-outs stand apart in the source and are kept apart here. Some results are limits rather than exact numbers.

IRAK4, sequence (Q9NWZ3 whole entry): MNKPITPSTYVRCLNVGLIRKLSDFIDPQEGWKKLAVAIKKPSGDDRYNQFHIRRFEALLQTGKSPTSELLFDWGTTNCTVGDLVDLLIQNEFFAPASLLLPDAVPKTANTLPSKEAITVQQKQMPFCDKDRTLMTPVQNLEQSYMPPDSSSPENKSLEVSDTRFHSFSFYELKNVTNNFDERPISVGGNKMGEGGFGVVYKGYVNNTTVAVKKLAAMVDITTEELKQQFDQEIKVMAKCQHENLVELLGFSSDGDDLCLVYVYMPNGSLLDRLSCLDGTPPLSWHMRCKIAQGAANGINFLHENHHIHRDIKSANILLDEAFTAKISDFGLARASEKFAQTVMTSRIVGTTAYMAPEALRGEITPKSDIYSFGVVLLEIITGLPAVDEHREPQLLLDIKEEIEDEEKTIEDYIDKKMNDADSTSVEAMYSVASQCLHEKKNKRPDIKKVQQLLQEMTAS
IRAK1, sequence (P51617 194-712): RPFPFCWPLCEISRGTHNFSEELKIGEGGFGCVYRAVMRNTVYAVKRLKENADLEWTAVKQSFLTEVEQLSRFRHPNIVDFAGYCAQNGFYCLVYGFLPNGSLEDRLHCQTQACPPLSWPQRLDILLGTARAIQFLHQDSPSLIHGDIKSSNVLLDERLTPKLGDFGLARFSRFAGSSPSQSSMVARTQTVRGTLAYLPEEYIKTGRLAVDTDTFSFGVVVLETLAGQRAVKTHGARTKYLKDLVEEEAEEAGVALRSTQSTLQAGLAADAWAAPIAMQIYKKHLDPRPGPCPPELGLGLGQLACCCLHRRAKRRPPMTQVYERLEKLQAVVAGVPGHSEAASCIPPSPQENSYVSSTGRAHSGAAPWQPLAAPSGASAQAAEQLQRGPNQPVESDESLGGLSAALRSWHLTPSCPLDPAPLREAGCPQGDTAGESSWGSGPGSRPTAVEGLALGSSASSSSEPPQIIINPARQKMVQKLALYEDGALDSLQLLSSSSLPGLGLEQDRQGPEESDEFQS

In turn, `O=C1Nc2nc3ccccc3n2CC(O)C2CCCN(C2)c2ccc(=O)n(n2)Cc2cccc1c2` (centres unmarked) gave a ring closure, isolated yield in data set [1] (from Nc1nc2ccccc2n1CC(O)C1CCCN(c2ccc(=O)n(Cc3cccc(C(=O)[O-])c3)n2)C1, 16-membered ring, HATU/HOAt/DMAP/DIEA, 1.27 mM) of 16%.

What is called IC50 is the concentration that gives 50% inhibition. Read a low IC50 as inhibition by little substance. For `O=C1Nc2nc3ccccc3n2C[C@H](O)[C@@H]2CCCN(C2)c2ccc(=O)n(n2)Cc2cccc1c2` (stereo in doubt) [Compound 32a, 25-hydroxy-1,6,14,16,23,32-hexaazahexacyclo[24.3.1.1^2,6.1^8,12.0^15,23.0^17,22]dotriaconta-2(32),3,8(31),9,11,15,17(22),18,20-nonaene-5,13-dione], the IC50 against IRAK1 is under 100 nM; in data set [2], 100 to 1000 nM; against IRAK4, under 100 nM.

In the case of `O=C1Nc2nc3ccccc3n2C[C@H](O)[C@H]2CCCN(C2)c2ccc(=O)n(n2)Cc2cccc1c2` (stereo in doubt) [Compound 32b, 25-hydroxy-1,6,14,16,23,32-hexaazahexacyclo[24.3.1.1^2,6.1^8,12.0^15,23.0^17,22]dotriaconta-2(32),3,8(31),9,11,15,17(22),18,20-nonaene-5,13-dione], the IC50 on IRAK1 was under 100 nM; in data set [2] it was 100 to 1000 nM; against IRAK4 it was under 100 nM.

Take `O=C1Nc2nc3ccccc3n2Cc2cccc(c2)-c2ccc(=O)n(n2)Cc2cccc1c2` [Compound 1, 8,15,17,25,29-pentaazahexacyclo[23.3.1.1^2,61^19,230^8,160^9,14]hentriaconta-1(29),2(31),3,5,9(14),10,12,15,19(30),20,22,27-dodecaene-18,26-dione]: the ring closure, yield of all isomers in data set [3] (from Nc1nc2ccccc2n1Cc1cccc(-c2ccc(=O)n(Cc3cccc(C(=O)O)c3)n2)c1, HBTU/HOBt/N-methylmorpholine, 10.0 mM, 15.0 h) turned out to be 26%. Moreover, the half-inhibitory concentration (IC50) on IRAK1 was under 100 nM; in data set [2] it was 100 to 1000 nM; at IRAK4, under 100 nM. The same compound gave a ring closure, isolated yield in data set [1] (from Nc1nc2ccccc2n1Cc1cccc(-c2ccc(=O)n(Cc3cccc(C(=O)[O-])c3)n2)c1, 15-membered ring, HBTU/HOBt/NMM, 10.0 mM) of 26%.

Regarding `O=C1Nc2nc3ccccc3n2CCc2cccc(c2)-c2ccc(=O)n(n2)Cc2cccc1c2` [Compound 2, 6,14,16,23,32-pentaazahexacyclo[24.3.1.1^2,6.1^8,12.0^15,23.0^17,22]dotriaconta-1(30),2(32),3,8,10,12(31),15,17(22),18,20,26,28-dodecaene-5,13-dione], the IC50 is under 100 nM at IRAK1, 100 to 1000 nM in data set [2] and under 100 nM at IRAK4.

`COc1cc2nc3n(c2cc1OC)Cc1cccc(c1)-c1ccc(=O)n(n1)Cc1cccc(c1)C(=O)N3` [Compound 5, 11,12-dimethoxy-8,15,17,25,29-pentaazahexacyclo[23.3.1.1^2,61^19,23.0^8,16.0^9,14]hentriaconta-1(29),2(31),3,5,9(14),10,12,15,19(30),20,22,27-dodecaene-18,26-dione]: the IC50 (on IRAK1; in data set [2]; against IRAK4) was under 100 nM throughout.

With `Cc1ccc2cc1-c1ccc(=O)n(n1)Cc1cccc(c1)C(=O)Nc1nc3ccccc3n1C2` [Compound 8, 3-Methyl-8,15,17,25,29-pentaazahexacyclo[23.3.1.1^2,61^19,230^8,160^9,14]hentriaconta-1(29),2(31),3,5,9(14),10,12,15,19(30),20,22,27-dodecaene-18,26-dione], the IC50 against IRAK1 was under 100 nM; in data set [2], 100 to 1000 nM; against IRAK4, under 100 nM.

Turning to `O=C1Nc2nc3ccccc3n2Cc2ccc(O)c(c2)-c2ccc(=O)n(n2)Cc2cccc1c2` [Compound 12, 3-hydroxy-8,15,17,25,29-pentaazahexacyclo[23.3.1.1^2,6.1^19,23.0^8,16.0^9,14]hentriaconta-1(29),2(31),3,5,9(14),10,12,15,19(30),20,22,27-dodecaene-18,26-dione], the IC50 on IRAK1 is under 100 nM; in data set [2], 1000 to 5000 nM; on IRAK4 it was under 100 nM.

As to `O=C1Nc2nc3ccccc3n2Cc2cc(ccn2)-c2ccc(=O)n(n2)Cc2cccc1c2` [Compound 16], the IC50 (against IRAK1; in data set [2]; against IRAK4) was under 100 nM in each case.

For the compound `O=C1Nc2nc3ccccc3n2CC(O)c2cccc(c2)-c2ccc(=O)n(n2)Cc2cccc1c2` (centres unmarked) [Compound 17], the IC50 (on IRAK1; in data set [2]; at IRAK4) was under 100 nM in each case.

In the case of `O=C1Nc2nc3ccccc3n2CC(O)CCOc2ccc(=O)n(n2)Cc2cccc1c2` (centres unmarked) [Compound 18, 20-hydroxy-23-oxa-1,9,11,18,28-pentaazapentacyclo[22.3.1.1^3,7.0^10,18.0^12,17]nonacosa-3,5,7(29),10,12(17),13,15,24(28),25-nonaene-8,27-dione], the ring closure, yield of all isomers in data set [3] (from Nc1nc2ccccc2n1CC(O)CCOc1ccc(=O)n(Cc2cccc(C(=O)O)c2)n1, HATU/HOAt/DMAP/DIPEA, 2.44 mM, 14.0 h) was found to be 7%. Moreover, the IC50 against IRAK1 was under 100 nM; in data set [2], 100 to 1000 nM; on IRAK4 it was under 100 nM. For the same compound, the ring closure, isolated yield in data set [1] (from potassium 3-{3-[4-(2-Amino-benzoimidazol-1-yl)-3-hydroxy-butoxy]-6-oxo-6H-pyridazin-1-ylmethyl}-benzoic acetate, 16-membered ring, HATU/HOAt/DMAP/DIEA, 2.4 mM) worked out at 7%.

Regarding `O=C1Nc2nc3ccccc3n2Cc2cc(ccc2O)-c2ccc(=O)n(n2)Cc2cccc1c2` [Compound 20, 5-hydroxy-8,15,17,25,29-pentaazahexacyclo[23.3.1.1^2,6.1^19,23.08,16.0^9,14]hentriaconta-1(29),2(31),3,5,9(14),10,12,15,19(30),20,22,27-dodecaene-18,26-dione], the IC50 (on IRAK1; in data set [2]; at IRAK4) was under 100 nM in each case.

Take `O=C(O)c1ccc2c(c1)nc1n2Cc2cccc(c2)-c2ccc(=O)n(n2)Cc2cccc(c2)C(=O)N1` [Compound 21]: the IC50 against IRAK1 is under 100 nM; in data set [2], 100 to 1000 nM; against IRAK4, under 100 nM.

Turning to `CC(=O)NCCc1ccc2c(c1)nc1n2Cc2cccc(c2)-c2ccc(=O)n(n2)Cc2cccc(c2)C(=O)N1` [Compound 25], the IC50 (against IRAK1; in data set [2]; against IRAK4) was under 100 nM in each case.
